According to ChEMBL document CHEMBL4651402, “Screening of ~5500 FDA-approved drugs and clinical candidates for anti-SARS-CoV-2 activity” (2021):
pIC50: −log10 of the molar value.

Key:
SARS-CoV-2 [1] = test: microbe, parasite or virus in culture; type: functional, organism-based, Chlorocebus sabaeus, Vero C1008; details: Severe acute respiratory syndrome coronavirus 2, Vero C1008, 48 h; for pIC50: read-out: IC50; for IC50: read-out: pIC50 (converted)
SARS-CoV-2 [2] = test: microbe, parasite or virus in culture; details: Severe acute respiratory syndrome coronavirus 2, Vero C1008, 48 h; for IC50: read-out: pIC50 (converted)

NCCCCCN
pIC50 (SARS-CoV-2 [1]): < 4.70 | IC50 (SARS-CoV-2 [1]): > 20 µM

CN1c2c([nH]c(N)nc2=O)NCC1CNc1ccc(C(=O)N[C@@H](CCC(=O)O)C(=O)O)cc1 (some centres not stated)
pIC50 (SARS-CoV-2 [1]): < 4.70 | IC50 (SARS-CoV-2 [1]): > 20 µM

CCOc1nc(N)nc2c1ncn2[C@@H]1O[C@@H]2CO[P@](=O)(OC(C)C)O[C@H]2[C@@]1(C)F
pIC50 (SARS-CoV-2 [2]): < 4.70 | IC50 (SARS-CoV-2 [2]): > 20 µM | pIC50 (SARS-CoV-2 [1]): < 4.30 | IC50 (SARS-CoV-2 [1]): > 50.1 µM

Cc1nc2ccc(Oc3ccccc3)cc2c2c1CCN2CCc1ccccc1
pIC50 (SARS-CoV-2 [2]): < 4.70 | IC50 (SARS-CoV-2 [2]): > 20 µM | pIC50 (SARS-CoV-2 [1]): ~5.31 | IC50 (SARS-CoV-2 [1]): ~4.9 µM

CC(C)CN(C[C@H](O)[C@H](Cc1ccccc1)NC(=O)O[C@H]1CO[C@@H]2OCC[C@@H]21)S(=O)(=O)c1ccc(N)cc1
pIC50 (SARS-CoV-2 [2]): < 4.70 | IC50 (SARS-CoV-2 [2]): > 20 µM | pIC50 (SARS-CoV-2 [1]): < 4.70 | IC50 (SARS-CoV-2 [1]): > 20 µM

Nc1ccn([C@@H]2S[C@H](CO)[C@@H](O)[C@H]2F)c(=O)n1
pIC50 (SARS-CoV-2 [2]): < 4.70 | IC50 (SARS-CoV-2 [2]): > 20 µM | pIC50 (SARS-CoV-2 [1]): < 4.70 | IC50 (SARS-CoV-2 [1]): > 20 µM

COc1cccc2c1C(=O)c1c(O)c3c(c(O)c1C2=O)C[C@@](O)(C(=O)CO)C[C@@H]3O[C@H]1C[C@H](N)[C@@H](O)[C@H](C)O1 [EPIRUBICIN]
pIC50 (SARS-CoV-2 [1]): < 4.00 | IC50 (SARS-CoV-2 [1]): > 100 µM

CC[C@@H]1[C@H](F)C(=O)N[C@@H]1COc1nccc2cc(C(N)=O)c(OC)cc12 [ZIMLOVISERTIB]
pIC50 (SARS-CoV-2 [2]): < 4.70 | IC50 (SARS-CoV-2 [2]): > 20 µM

CC(C)(Cc1ccccc1)NCC(O)c1ccc(O)c(NS(C)(=O)=O)c1 (configuration not stated) [ZINTEROL]
pIC50 (SARS-CoV-2 [2]): < 4.70 | IC50 (SARS-CoV-2 [2]): > 20 µM

CC(C)S(=O)(=O)n1c(N)nc2ccc(/C(=N\O)c3ccccc3)cc21 [ZINVIROXIME]
pIC50 (SARS-CoV-2 [2]): < 4.70 | IC50 (SARS-CoV-2 [2]): > 20 µM

O=C1Cc2cc(CCN3CCN(c4nsc5ccccc45)CC3)c(Cl)cc2N1 [ZIPRASIDONE]
pIC50 (SARS-CoV-2 [2]): < 4.70 | IC50 (SARS-CoV-2 [2]): > 20 µM

Cc1ccc2nc(N3CCS(=O)(=O)c4ccccc4C3)nc(NCC3(N)COC3)c2c1 [ZIRESOVIR]
pIC50 (SARS-CoV-2 [2]): < 4.70 | IC50 (SARS-CoV-2 [2]): > 20 µM

C[C@H](CSC(=O)c1ccccc1)C(=O)N1C[C@@H](Sc2ccccc2)C[C@H]1C(=O)O [ZOFENOPRIL]
pIC50 (SARS-CoV-2 [2]): < 4.70 | IC50 (SARS-CoV-2 [2]): > 20 µM

CS(=O)(=O)c1ccc(-c2cn3ccccc3n2)cc1 [ZOLIMIDINE]
pIC50 (SARS-CoV-2 [2]): < 4.70 | IC50 (SARS-CoV-2 [2]): > 20 µM

CC(C(=O)O)c1ccc(Oc2nccs2)cc1 (configuration not stated) [ZOLIPROFEN]
pIC50 (SARS-CoV-2 [2]): < 4.70 | IC50 (SARS-CoV-2 [2]): > 20 µM

CN(C)CCc1c[nH]c2ccc(C[C@H]3COC(=O)N3)cc12 [ZOLMITRIPTAN]
pIC50 (SARS-CoV-2 [2]): < 4.70 | IC50 (SARS-CoV-2 [2]): > 20 µM

Cc1ccc(-c2nc3ccc(C)cn3c2CC(=O)N(C)C)cc1 [ZOLPIDEM]
pIC50 (SARS-CoV-2 [2]): < 4.70 | IC50 (SARS-CoV-2 [2]): > 20 µM

Cc1cc(CC(=O)O)n(C)c1C(=O)c1ccc(Cl)cc1 [ZOMEPIRAC]
pIC50 (SARS-CoV-2 [2]): < 4.70 | IC50 (SARS-CoV-2 [2]): > 20 µM

NS(=O)(=O)Cc1noc2ccccc12 [ZONISAMIDE]
pIC50 (SARS-CoV-2 [2]): < 4.70 | IC50 (SARS-CoV-2 [2]): > 20 µM

CN1CCN(C(=O)OC2c3nccnc3C(=O)N2c2ccc(Cl)cn2)CC1 (configuration not stated) [ZOPICLONE]
pIC50 (SARS-CoV-2 [2]): < 4.70 | IC50 (SARS-CoV-2 [2]): > 20 µM

O[C@@H](COc1cccc2ncccc12)CN1CCN([C@@H]2c3ccccc3[C@@H]3[C@H](c4ccccc42)C3(F)F)CC1 [ZOSUQUIDAR]
pIC50 (SARS-CoV-2 [2]): < 4.70 | IC50 (SARS-CoV-2 [2]): > 20 µM

COc1cc2c(c(OC)n1)[C@]1(O)[C@H](O)[C@H](CN(C)C)[C@@H](c3ccccc3)[C@]1(c1ccc(C#N)cc1)O2 [ZOTATIFIN]
pIC50 (SARS-CoV-2 [2]): < 4.70 | IC50 (SARS-CoV-2 [2]): > 20 µM

FC(F)c1nc2ccccc2n1-c1nc(N2CCOCC2)nc(N2CCOCC2)n1 [ZSTK-474]
pIC50 (SARS-CoV-2 [2]): < 4.70 | IC50 (SARS-CoV-2 [2]): > 20 µM

Cc1ccc(O)cc1 [p-CRESOL]
pIC50 (SARS-CoV-2 [2]): < 4.70 | IC50 (SARS-CoV-2 [2]): > 20 µM

Cn1nnc2ccc(C(c3ccc(Cl)cc3)n3cncn3)cc21 (stereo not drawn) [rac-VOROZOLE]
pIC50 (SARS-CoV-2 [2]): < 4.70 | IC50 (SARS-CoV-2 [2]): > 20 µM

C[C@@H](NCCc1ccc(O)cc1)[C@@H](O)c1ccc(O)cc1 [rel-RITODRINE]
pIC50 (SARS-CoV-2 [2]): < 4.70 | IC50 (SARS-CoV-2 [2]): > 20 µM

enfuvirtide
pIC50 (SARS-CoV-2 [2]): < 4.70 | IC50 (SARS-CoV-2 [2]): > 20 µM
